≈ marks a conversion by molar mass, not a printed value.

The conditions of this data set: buffer; pH 7.4; 200.0 µM.
Consider `COc1ccc(CCNC(=O)CCc2ccccc2)cc1OC`, for which the kinetic solubility is over 47 µg/mL.

Regarding `Cc1cc(=O)oc(C)c1C(=O)NC1CCCCCCC1`, the solubility (kinetic) is 11.8 µg/mL (≈ 42.5 µM).

`CCOc1ccccc1NC(=O)CN1CCC(NC(=O)Nc2ccccc2)CC1`: the solubility (kinetic) worked out at 18.5 µg/mL (≈ 46.7 µM).

Consider `COc1ccc(NS(=O)(=O)c2cn(C)cn2)cc1OC`, for which the kinetic solubility is 32.9 µg/mL (≈ 111 µM). Compared with the last molecule, the solubility kinetic is about 1.8-fold higher.

`COC(=O)c1sccc1NC(=O)c1c(Cl)cccc1Cl` gave a kinetic solubility of 0.7 µg/mL (≈ 2.12 µM).

Regarding `COC(=O)c1ccc(C2NC(=O)c3c(sc(C)c3C)N2)cc1` (stereo unspecified), the solubility (kinetic) was determined as 14.5 µg/mL (≈ 45.8 µM). This solubility kinetic lies about 21-fold higher than the previous one.

For the molecule `CCOC(=O)C1CCN(Cc2ccc(-c3ccccc3)cc2)CC1`, the kinetic solubility worked out at 25.6 µg/mL (≈ 79.2 µM).

`COc1ccc(C)c(NC(=O)C2CC(=O)NC3=C2C(=O)CCC3)c1` (stereo unspecified) displayed a solubility (kinetic) of 47.5 µg/mL (≈ 145 µM). This solubility kinetic lies about 1.9-fold higher than the previous one.

In the case of `CCN(CC(=O)Nc1c(F)cccc1F)C(=O)c1ccccn1`, the solubility (kinetic) is over 47.9 µg/mL.

For `CCCc1c(O)nc(SCC(=O)O)[nH]c1=O`, the kinetic solubility is over 36.6 µg/mL.

Turning to `COc1ccc(N(CC(=O)Nc2cccnc2)S(=O)(=O)c2ccccc2)cc1Cl`, the solubility (kinetic) is 34.2 µg/mL (≈ 79.2 µM).

As to `COc1ccc(-n2c(CN3CCOCC3)nc3ccccc3c2=O)c(OC)c1`, the kinetic solubility was over 57.2 µg/mL.

As to `O=C(CC12CC3CC(CC(Br)(C3)C1)C2)NC1CCCC1`, the solubility (kinetic) came out at 36.4 µg/mL (≈ 107 µM).

Molecule `CCCCC(=O)N=c1sc2c(OC)ccc(OC)c2n1C` had a solubility (kinetic) of under 0.3 µg/mL.

`O=C(O)CC1(CC(=O)Nc2cc(F)ccc2Cl)CCCCC1` returned a kinetic solubility of over 49.2 µg/mL.

For the molecule `COCCCn1c(=S)[nH]c2sc3c(c2c1=O)CCCC3`, the solubility (kinetic) is over 46.6 µg/mL.

For `CN(C)c1cccc(C(=O)NCCCSc2ccccc2)c1`, the solubility (kinetic) was 17.9 µg/mL (≈ 56.9 µM).

Regarding `CC(C)COc1ccc(Br)cc1CNC(C)(C)C.Cl`, the kinetic solubility was 50.7 µg/mL.

`CCOC(=O)C1=C(CC)Nc2ccccc2N=C1N` displayed a kinetic solubility of 14.3 µg/mL (≈ 55.1 µM).

For `CC(C)c1ccc(CN2CCSCC2)cc1`, the kinetic solubility came to 1.1 µg/mL (≈ 4.67 µM). This solubility kinetic lies about 13-fold lower than the previous one.

`N#C/C(=C\c1cccnc1)C(=O)Nc1ccc(C(=O)O)cc1` returned a kinetic solubility of over 44 µg/mL.

In the case of `CC(=O)Nc1cccc(-c2csc(Nc3ncccn3)n2)c1`, the kinetic solubility was determined as 3.5 µg/mL (≈ 11.2 µM).

`Cc1c(CCC(=O)NC2CC2)c(=O)oc2cc(O)ccc12` returned a solubility (kinetic) of over 43.1 µg/mL.

The molecule `CCC1(C)Cc2ccccc2-c2nc(SCC(N)=O)[nH]c(=O)c21` (stereo unspecified) showed a solubility (kinetic) of 0.8 µg/mL (≈ 2.43 µM).

Molecule `Cc1ccc(S(=O)(=O)[O-])cc1.Cn1cc[n+](C)c1COc1ccc(C=O)cc1` returned a kinetic solubility of over 60.4 µg/mL.

The molecule `Oc1ccc(C=Nc2ccc3ncccc3c2)c(O)c1` yielded a solubility (kinetic) of 30.5 µg/mL (≈ 115 µM).

In turn, `Cc1ccc(-c2cc(NC(=O)c3ccccc3)on2)cc1` had a solubility (kinetic) of under 0.3 µg/mL.

Take `COCc1cc(C)nc(SCC(=O)NCC2CCCO2)c1C#N` (stereo unspecified): the solubility (kinetic) is over 50.3 µg/mL.

Take `O=C(COC(=O)C12CC3CC(CC(Cl)(C3)C1)C2)Nc1ccccc1`: the solubility (kinetic) worked out at 5.9 µg/mL (≈ 17 µM).

`Cc1ccc(NCCC(=O)c2cccs2)cc1` yielded a kinetic solubility of 17.9 µg/mL (≈ 73 µM).

In the case of `CN(CC(=O)Nc1ccc(F)cc1)CC(=O)N1CCCCCC1`, the kinetic solubility was 44.8 µg/mL (≈ 139 µM).

For the molecule `COC(=O)c1oc(-c2ccccc2)nc1C`, the kinetic solubility worked out at 15.6 µg/mL (≈ 71.8 µM). Against the preceding molecule, the solubility kinetic is about 2.9-fold lower.

`Cc1ccc(OCCCCNC(C)c2ccccc2)c(C)c1` (stereo unspecified) displayed a solubility (kinetic) of 32.2 µg/mL (≈ 108 µM).

`CCCCNc1nc(Cl)nc(Nc2ccc(C)cc2)n1` registered a kinetic solubility of 1.7 µg/mL (≈ 5.83 µM).

In turn, `COc1ccc(-c2ccc(S(=O)(=O)N3CCCC3)cc2)cc1` yielded a kinetic solubility of 1.1 µg/mL (≈ 3.47 µM).

In the case of `CC1(c2ccc3ccccc3c2)NC(=O)NC1=O` (stereo unspecified), the kinetic solubility was determined as 29.3 µg/mL (≈ 122 µM).

`Cc1cccc(C)c1C(=NCCN(C)C)c1ccccc1.Cl`: the kinetic solubility was over 53 µg/mL.

`COc1cccc(CN2CCN(c3ncccn3)CC2)c1OC` displayed a kinetic solubility of 35.7 µg/mL (≈ 114 µM).

As for `O=C(NC1CC1)C1CC(=O)N(c2ccccc2)C1` (stereo unspecified), the kinetic solubility is over 36.6 µg/mL.

Molecule `COC(=O)c1c(-c2ccc(F)cc2)csc1NC(=O)C1CCCO1` (stereo unspecified) showed a kinetic solubility of 5.2 µg/mL (≈ 14.9 µM).

Regarding `CC(=O)Nc1ccc(C23CC4CC(CC(C4)C2)C3)cc1`, the kinetic solubility stood at 0.8 µg/mL (≈ 2.97 µM).

Molecule `CCCc1cc(=O)[nH]c(SCC(=O)Nc2ccc(N3CCCCC3)cc2)n1` came in with a solubility (kinetic) of 16.6 µg/mL (≈ 42.9 µM).

Regarding `CCOc1cc(C(=O)NC(C)CCc2ccccc2)cc(OCC)c1OCC` (stereo unspecified), the solubility (kinetic) was found to be 0.8 µg/mL (≈ 2.08 µM).

`CN(C)/C=C/C(=O)c1cnc(-c2ccccn2)s1` returned a solubility (kinetic) of over 38.9 µg/mL.

For the molecule `Cc1cc(C)cc(N2CC(C)Cn3c2nc2c3c(=O)[nH]c(=O)n2C)c1` (stereo unspecified), the kinetic solubility is 13 µg/mL (≈ 38.3 µM).

In the case of `CCCC(=O)NNC(=O)CCC(=O)Nc1ccccc1Cl`, the solubility (kinetic) was over 46.8 µg/mL.

Regarding `COCC(C)NC(C(=O)Nc1cccc(C(C)=O)c1)c1ccccc1` (stereo unspecified), the kinetic solubility was over 51.1 µg/mL.

As to `COc1ccc(C(C#N)c2nc3ccccc3nc2Cl)cc1` (stereo unspecified), the kinetic solubility was under 0.2 µg/mL.

On to `O=[N+]([O-])c1cccc(Oc2cnccn2)c1`, for which the solubility (kinetic) turned out to be 31.8 µg/mL (≈ 146 µM).

Regarding `O=C(COC(=O)c1cc[n+]([O-])cc1)Nc1ccc([N+](=O)[O-])cc1`, the solubility (kinetic) is over 47.6 µg/mL.

Turning to `CC(C)OP(=O)(c1ccc(N(C)C)cc1)C(O)c1ccc(N(C)C)cc1` (stereo unspecified), the kinetic solubility was over 56.5 µg/mL.

Turning to `COc1ccc(OCC(O)CNC(=O)c2sccc2Cl)cc1` (stereo unspecified), the kinetic solubility amounted to 46 µg/mL (≈ 135 µM).

`Cc1ccc(S(=O)(=O)NCc2ccccn2)c(C)c1C` registered a kinetic solubility of 43.2 µg/mL (≈ 149 µM). This solubility kinetic and that of the molecule before are within 1.5-fold of each other.

`COc1ccc(CC(=O)N2CCN=C2SC)cc1OC` had a kinetic solubility of over 44.2 µg/mL.

The molecule `Cc1cccc(C)c1NC(=O)CN1C(=O)COc2ccccc21` registered a solubility (kinetic) of 6 µg/mL (≈ 19.3 µM).

For `CCc1ccc(S(=O)(=O)NCc2cccs2)cc1`, the solubility (kinetic) is 35.6 µg/mL (≈ 127 µM).

Turning to `CCSc1nc(-c2cccs2)nc2ccccc12`, the solubility (kinetic) was found to be 0.3 µg/mL (≈ 1.1 µM).

As for `N#C/C(=C\c1ccccc1)C(=O)NCc1ccc(F)cc1`, the kinetic solubility turned out to be 5.3 µg/mL (≈ 18.9 µM).

Molecule `O=C(N/N=C/c1ccc(O)c(O)c1)C1CC1` displayed a solubility (kinetic) of over 33 µg/mL.

`CCN(Cc1ccncc1)C(=O)C(CO)c1ccccc1` (stereo unspecified) showed a solubility (kinetic) of over 42.7 µg/mL.

Take `O=C(CNC(=O)c1sc2ccccc2c1Cl)NC1CC1`: the solubility (kinetic) was 4 µg/mL (≈ 13 µM).

Take `COc1ccc(C)cc1NC(=S)Nc1ccccc1SC`: the solubility (kinetic) was found to be 10.5 µg/mL (≈ 33 µM).

Take `COc1ccc(NC(=O)CN2CCN(CC#N)CC2)cc1`: the kinetic solubility was over 43.3 µg/mL.

The molecule `O=C(Cc1ccc(Cl)cc1)N1CCN(c2ccc(F)cc2)CC1` yielded a solubility (kinetic) of 19 µg/mL (≈ 57.1 µM).

`CCn1c(O)c(C=NCCN2CCOCC2)c(=O)[nH]c1=S`: the solubility (kinetic) is over 46.9 µg/mL.

The molecule `O=C(O)c1cc(N2C(=O)CCC2=O)ccc1Cl` gave a kinetic solubility of over 38 µg/mL.

`COc1ccccc1C(=O)Nc1nsc(-c2ccccc2)n1` displayed a solubility (kinetic) of 8.8 µg/mL (≈ 28.3 µM).

Turning to `COc1ccccc1NC(=O)c1ccc2[nH]c(C)c(C)c2c1`, the kinetic solubility is 2.1 µg/mL (≈ 7.13 µM).

As to `COCc1cc(=O)[nH]c2c1c(-c1ccccc1)nn2C`, the kinetic solubility was over 40.4 µg/mL.

Regarding `c1ccc2c3c([nH]c2c1)CNCC3`, the solubility (kinetic) is over 25.8 µg/mL.

For `Cc1cccc(CSc2ncnc3ccccc23)c1`, the kinetic solubility is 0.4 µg/mL (≈ 1.5 µM).

For `C=CCNc1nc2ccccc2nc1NS(=O)(=O)c1ccc(OC)cc1`, the kinetic solubility turned out to be 45.9 µg/mL (≈ 124 µM).

Molecule `COc1ccc2c(c1)-c1nc(/N=C/c3ccccc3O)sc1CC2` yielded a kinetic solubility of 44.5 µg/mL (≈ 132 µM).

With `CC(=O)c1ccc(NC(=O)CCNC(=O)c2ccccc2Cl)cc1`, the solubility (kinetic) came to 48.8 µg/mL (≈ 142 µM).

`CCn1c(SCC(=O)N2CCOCC2)nnc1-c1ccco1` returned a solubility (kinetic) of over 48.4 µg/mL.

Take `O=C1CSC(c2cccnc2)N1Cc1ccc(Cl)c(Cl)c1` (stereo unspecified): the solubility (kinetic) amounted to 48.7 µg/mL (≈ 144 µM).

By solubility (kinetic) is commonly meant solubility judged after dilution from a stock solution rather than from solid.

Source of the values: PubChem BioAssay AID1996.
